# Results as given in patent US20020065225A1, “Methods of determining altered NDPK functions and the diagnosis of cystic fibrosis” (priority 1999, published 2002).
# How the values were obtained:
# annexin I = assay: Inhibition of annexin I phosphorylation in a membrane preparation; format: biochemical
# Experimental: Following pre-incubation with N^6-monobutyryladenosine 3′:5′ cyclic monophosphate (N^6-mbcAMP) (0-1 mM) at 4° C. for 30 min, a membrane preparation was phosphorylated with γ[^32P] ATP at 37° C. for 5 min.
# As described previously^15. Phosphorylation and Electronic Autoradiography - Briefly, proteins were phosphorylated with either 37 kBq γ[^32P] ATP or GTP (final nucleotide concentration, 16 nM) in 10 mM MOPS pH 7.9 containing 5 mM DTT. The reaction was terminated by adding 5x Laemmli sample buffer (Laemmli (1970) Nature 227, 680-685) and the proteins separated by SDS-PAGE using 12.5% polyacrylamide gels. Pre-stained molecular weight markers were used to avoid staining and destaining of gels prior to imaging and quantification. The incorporation of ^32PO4 into individual protein bands was detected using electronic autoradiography (Canberra-Packard Instant Imager).
# NDPK [1] = assay: Peptide-affinity column binding of human nasal membrane proteins, eluate labelled with [32P]ATP; conditions: wild-type human nasal epithelium membrane proteins, eluate slot blots exposed to [32P]ATP
# Experimental: (§1) We speculated that this part of CFTR would associate with protein(s) from the chloride-sensitive phosphorylation cascade. We constructed peptides corresponding to the CFTR region encompassing position 508 of human CFTR. Membrane proteins from wild-type human nasal epithelium were incubated with either of two peptides corresponding to the wild-type or the ΔF508 mutant form of CFTR (KENIIFGVSYDEYR or KENIIGVSYDEYR, respectively) linked to an affinity matrix (^18). […] In order to generate sufficient material to characterise the bound protein(s), this experiment was repeated using the equivalent ovine wild-type CFTR peptide (KDNIIFGVSYDEYR) and membrane proteins from ovine tracheal epithelia (^18) Proteins eluted from this peptide column were phosphorylated with γ[^32P]ATP and separated by SDS-PAGE. […] In contrast, the failure of membrane-delimited UTP production in CF does provide an additional rationale for the administration of UTP in this disease.
# 18. Human nasal epithetium: Apical membrane proteins from human nasal epithelium were solubilised at 4° C. (10 mM KOH, 0.1% Tween), dialysed against PBS-Tween containing protease inhibitors (3 h) and spun at 150 000 g for 1 h. The supernatant was then re-circulated over affinity supports containing either synthetic peptide KENIIFGVSYDEYR or KENIIGVSYDEYR, corresponding to the F508 region of wild-type or […] mutant CFTR, respectively. The columns were washed with PBS-Tween (0.1%) and eluted with 1M KI. Fractions (40×1 ml) were slot blotted onto nitrocellulose under vacuum. The blots were washed in buffer A (10 mM MOPS pH 7.9, 1 mM MgCl2, 0.05% Triton X-100, 1 mM ATP) for 10 min and subsequently labelled with 5 nM γ[^32P]ATP (specific activity 222 TBq/mmol) in buffer A (1 h at room temperature). The blots were finally washed with PBS-Tween (0.1%) for 30 min (6 buffer changes) and visualised using electronic autoradiography. Sheep tracheal epithelia. The pelleted membranes from sheep tracheal epithelia were solubilised with 0.1% glucopyranoside in 50 mM HEPES pH 7.4 on ice for 1 h and centrifuged at 100 000×g for 30 min. […]
# Anx I [2] = assay: Nature of the phospho-linkage on ovine [32P]Anx I; format: biochemical; conditions: data not shown
# Experimental: Previously, annexins have been reported, to be phosphorylated on serine and tyrosine residues within the N-terminus by PKC and EGF receptor kinase, respectively^18 but acid hydrolysis (6 N HCl at 105° C., 2 h) of ovine [^32P]Anx I. (labelled for 5 min) removed>95% of the radioactivity from p37 (Anx I) (data not shown). Further analysis confirmed that this phospho-linkage was not on serine, threonine or tyrosine residues because it was acid labile (FIG. 5e, lanes 1 and 3), base stable (FIG. 5e, lane 2) and inhabitable following pre-incubation with diethylpyrocarbamate (modifies histidine residues, data not shown). […] To our knowledge, this is the first report in annexins. […] Histidine phosphorylation may regulate the proposed functions of the core—cation channel permeation^20 and/or membrane fusion^6,8.
# As described previously^19. In order to determine the nature of the phosphate linkage on [^32-P]-annexin I, a membrane fraction was labelled with γ[^32P] GTP or γ[^32P] ATP for 5 min at 37° C. The reaction was terminated with 5x Laemmli sample buffer. Phosphorylated protein (10 μg) was then incubated at 30° C. for 10 min in reaction mixtures containing phosphorylation buffer alone, 0.1 N HCl (pH 1), 0.1 N NaOH (pH 13) or 0.8 M hydroxylamine-0.1 M acetate (pH 5.2). […]
# NDPK [3] = assay: Ovine CFTR peptide affinity column with ovine tracheal epithelial membrane proteins; format: binding, sheep; conditions: for Western blot of eluate with antibodies specific to NDPK: eluate from ovine CFTR peptide column; for phosphorylated species in eluate of peptide column (SDS-PAGE, electronic autoradiography): ovine tracheal membrane proteins, eluate phosphorylated with γ[32P]ATP
# Experimental: as §1
# 18. Human nasal epithetium: Apical membrane proteins from human nasal epithelium were solubilised at 4° C. (10 mM KOH, 0.1% Tween), dialysed against PBS-Tween containing protease inhibitors (3 h) and spun at 150 000 g for 1 h. The supernatant was then re-circulated over affinity supports containing either synthetic peptide KENIIFGVSYDEYR or KENIIGVSYDEYR, corresponding to the F508 region of wild-type or […] mutant CFTR, respectively. The columns were washed with PBS-Tween (0.1%) and eluted with 1M KI. Fractions (40×1 ml) were slot blotted onto nitrocellulose under vacuum. The blots were washed in buffer A (10 mM MOPS pH 7.9, 1 mM MgCl2, 0.05% Triton X-100, 1 mM ATP) for 10 min and subsequently labelled with 5 nM γ[^32P]ATP (specific activity 222 TBq/mmol) in buffer A (1 h at room temperature). The blots were finally washed with PBS-Tween (0.1%) for 30 min (6 buffer changes) and visualised using electronic autoradiography. Sheep tracheal epithelia. The pelleted membranes from sheep tracheal epithelia were solubilised with 0.1% glucopyranoside in 50 mM HEPES pH 7.4 on ice for 1 h and centrifuged at 100 000×g for 30 min. The supernatant was applied to a peptide affinity column (KDNIIFGVSYDEYRC, corresponding to the F508 region of ovine wild-type CFTR, coupled to epoxy activated POROS 20 media using the additional terminal cysteine residue). The column was washed with load buffer containing 1M NaCl, followed by load buffer only (100 column volumes or stable OD280˜0.015). Bound proteins were eluted with 50 mM glycine-NaOH pH 11 containing 0.1% glucopyranoside and immediately neutralised with 1M Tris-HCl pH 8.0.
# p37 (Anx I) = conditions: cited from earlier work
# Anx I [4] = assay: Anx I phosphorylation in murine tracheal epithelium membrane and cytosol with ATP+GDP; format: biochemical, mouse
# Source text: Cyclic AMP controls both the membrane aggregating and the cation channel properties of Anx I via a proposed cAMP binding site^20. Because cAMP-dependent fluid secretion^22 and vesicle trafficking^2,3,22 are both disordered in CF airway and annexins share significant homology with the region of CFTR (amino acids 500-529) bearing the common disease mutation^7, we speculated that annexins may be involved in CF. […] We observed an absence of a 37 kDa phosphoprotein in plasma membranes from the airway of a CF mouse model, Cftr^tm1cam, which expresses no CFTR (FIG. 6a, quantitation FIG. 6e). We confirmed the identity of murine p37 as Anx I by immunoprecipitating pre-phosphorylated [^32P]p37 from wild type membranes using antibodies against Anx I (FIG. 5c). […] Because Anx I is a membrane-associated protein which shuttles between membrane and cytosol^26, we studied Anx I phosphorylation in cytosol from wild-type and Cftr^tm1Cam. In the absence of GDP and in contrast to the membrane, we found no differences in Anx I phosphorylation between wild-type and Cftr^tm1Cam cytosol (FIG. 6b; quantitation f). We confirmed the identity of cytosolic p37 as Anx I by immunoprecipitating pre-phosphorylated [^32P]p37 as described above (data not shown). […] It is possible that the excess protein results from a compensatory increase in synthesis to overcome a disruption of function. Excess Anx I protein is consistent with the elevated plasma concentrations of the calcium-dependent annexin binding proteins (S100A8 and A9 or CF antigen) in both CF carriers and patients^27. S100 proteins form obligate dimers^6 which bring together the N termini of different Anx I monomers to promote membrane-membrane fusion.
# Swiss mice (wild-type) (6-10 weeks old) and mutant Cftr^tm1Cam mice^12 (4-12 weeks old) were used in this study. […]
# As described previously^15. […] Pre-stained molecular weight markers were used to avoid staining and destaining of gels prior to imaging and quantification. The incorporation of ^32PO4 into individual protein bands was detected using electronic autoradiography (Canberra-Packard Instant Imager).
compound,measurement,setting,value
Nc1ncnc2c1ncn2[C@@H]1O[C@@H]2COP(=O)(O)O[C@H]2[C@H]1O [cyclic AMP],inhibition of p37 phosphorylation,annexin I; observed whilst characterising NDPK,inhibiton of p^37 phosphorylation
KENIIGVSYDEYR [synthetic peptide corresponding to the F508 region of ΔF508 mutant human CFTR],phosphorylatable protein bound by and eluted from peptide-affinity column,NDPK [1],No phosphorylation was observed
CCOC(=O)OC(=O)OCC [diethylpyrocarbamate],effect of pre-incubation on Anx I phospho-linkage,Anx I [2],inhabitable
KDNIIFGVSYDEYR [equivalent ovine wild-type CFTR peptide; coupled to the column via an additional terminal cysteine],Western blot of eluate with antibodies specific to NDPK,NDPK [3],"detected a 21 kDa protein, indicating the presence of NDPK"
same,Western blot of eluate with antibodies specific to NDPK,NDPK [3]; listed as ovine CFTR peptide,detected a 21 kDa protein
same,"phosphorylated species in eluate of peptide column (SDS-PAGE, electronic autoradiography)",NDPK [3],a 19/21 kDa doublet was the sole phosphorylated species in the eluate
same,"phosphorylated species in eluate of peptide column (SDS-PAGE, electronic autoradiography)",NDPK [3]; listed as ovine CFTR peptide,showed a 19/21 kDa phosphoprotein
KENIIFGVSYDEYR [synthetic peptide corresponding to the F508 region of wild-type human CFTR],phosphorylatable protein bound by and eluted from peptide-affinity column,NDPK [1],bound protein(s) that could be phosphorylated
same,phosphorylatable protein bound by and eluted from peptide-affinity column,NDPK [1]; listed as wild-type peptide,a phosphoprotein was observed in fraction 22
Nc1nc2c(ncn2[C@@H]2O[C@H](COP(=O)(O)OP(=O)(O)O)[C@@H](O)[C@H]2O)c(=O)[nH]1 [GDP],enhancement of phosphorylation of the 37 kDa protein,"p37 (Anx I); ATP (50 nM)+GDP (500 nM), 37° C., 5 min (ref 15)",20 fold
same,effect on p37 (Anx I) phosphorylation,p37 (Anx I); previously found (ref 15),enhanced
same,"effect on Anx I phosphorylation, Cftr^tm1Cam cytosol","Anx I [4]; Cftr^tm1Cam cytosol, GDP added to γ[32P]ATP",partial restoration of Anx I phosphorylation
same,"effect on histidine phosphorylation of Anx I, Cftr^tm1Cam membranes","Anx I [4]; Cftr^tm1Cam membranes, ATP+GDP",failed to either restore or enhance
same,"effect on Anx I phosphorylation, wild type membranes","Anx I [4]; wild type murine membranes, γ[32P]ATP+GDP",enhancement was also observed
"CCCC(=O)Nc1ncnc2c1ncn2[C@@H]1O[C@@H]2COP(=O)(O)O[C@H]2[C@H]1O [N^6-mbcAMP, N^6-monobutyryladenosine 3′:5′ cyclic monophosphate]",concentration of maximal inhibition of (histidine) phosphorylation of annexin I,"annexin I; pre-incubation 0-1 mM, 4° C., 30 min, γ[32P]ATP 37° C., 5 min",1 mM
